Measured values: US20230151037A1, “GPR40 AGONISTS” (Kallyope, Inc., priority 2020, published 2023)

Target: T1, human GPR40 (Homo sapiens, UniProt O14842)
T1 construct: host or cells: CHO-K1
Assay: Inositol phosphate accumulation assay (IP1 HTRF) in CHO-K1 cells expressing human GPR40
Type: cell-based
Conditions: 90 min
Method: CHO-K1 cells expressing human GPR40 were purchased from DiscoverX (95-1005C2). HEK293 cells expressing mouse FFAR1 were prepared using a mouse FFAR1 carrying plasmid purchased from OriGene Technologies (MR222997). The cells were transfected using Lipofectamine 2000 using manufacturer instructions and stable cell line was established from a single cell using geneticine selection. Assay ready frozen (ARF) cells were prepared and used throughout the study.
The assay was performed in a 384-well plate format using IP1 assay kit from Cis-Bio. ARF cells expressing FFAR1 (mouse and human) were thawed, washed and then plated in the appropriate medium (F12 based medium for CHO hFFAR1 and DMEM based medium for HEK293 mFFAR1-both were supplemented with 10% FBS and penicillin/streptomycin). 20 μL of 3.5×10^5 cells/mL were plated on a Poly D-Lysine coated 384-well white plate. The cells were then incubated for 16 hr at 37° C./5% CO2. After 16 hr the medium was removed and 15 μL of stimulation buffer containing the test compounds was added to the cells. The plates were then incubated for 90 min at 37° C./5% CO2. 5 μL of detection buffer (prepared as described in the IP-one kit) was added to each well and the plates were incubated at RT for 1 hr.
[…] was measured using ClarioSTAR plate reader, calculating the ratio between emissions at 665 nm and 620 nm (HTRF ratio). HTRF ratio for positive (Max) and negative (Min) controls were used to normalize HTRF data and generate values for % activity. EC50 and Max activity values were determined using a standard 4-parameter fit.

T1 sequence (O14842 whole entry): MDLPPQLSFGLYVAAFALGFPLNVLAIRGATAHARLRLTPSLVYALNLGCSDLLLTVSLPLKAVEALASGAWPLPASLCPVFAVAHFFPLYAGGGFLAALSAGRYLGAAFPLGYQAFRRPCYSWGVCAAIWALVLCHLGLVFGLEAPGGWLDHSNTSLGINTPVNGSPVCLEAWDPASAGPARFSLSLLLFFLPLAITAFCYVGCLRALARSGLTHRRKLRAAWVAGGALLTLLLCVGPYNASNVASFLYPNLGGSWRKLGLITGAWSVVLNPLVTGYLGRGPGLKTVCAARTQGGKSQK

| Compound | EC50 |
| --- | --- |
| COc1cccc(-c2ccc(COc3cc([C@@H](CP(C)(=O)O)C4CC4)ccn3)cc2[C@@H](OC)C(C)(C)C)c1 [Compound 30, ((S)-2-cyclopropyl-2-(2-((3′-methoxy-2-((S)-1-methoxy-2,2-dimethylpropyl)-[1,1′-biphenyl]-4-yl)methoxy)pyridin-4-yl)ethyl)(methyl)phosphinic acid] | ≤ 50 nM |
| COc1cc(-c2ccc(COc3cc(C(C)CP(C)(=O)O)ccn3)cc2CN(C(C)C)C(C)C)c(F)cn1 (single isomer, unassigned) [Compound 39, ((R)-2-(2-((3-((diisopropylamino)methyl)-4-(5-fluoro-2-methoxypyridin-4-yl)benzyl)oxy)pyridin-4-yl)propyl)(methyl)phosphinic acid or ((S)-2-(2-((3-((diisopropylamino)methyl)-4-(5-fluoro-2-methoxypyridin-4-yl)benzyl)oxy)pyridin-4-yl)propyl)(methyl)phosphinic acid] | > 1000 nM |
| COc1cc(-c2ccc(COc3cc(C(C)CP(C)(=O)O)ccn3)cc2[C@@H](OC)C(C)(C)C)c(F)cn1 (single isomer, unassigned) [Compound 37] | ≤ 50 nM |
| COc1cc(-c2ccc(COc3cccc(C(C)CP(C)(=O)O)c3)cc2[C@@H](OC)C(C)(C)C)c(F)cn1 (stereo partly drawn) [Compound 34, (2-(3-((4-(5-fluoro-2-methoxypyridin-4-yl)-3-((S)-1-methoxy-2,2-dimethylpropyl)benzyl)oxy)phenyl)propyl)(methyl)phosphinic acid] | ≤ 50 nM |
| COc1cc(-c2ccc(COc3cccc(C(C4CC4)C(C)(C)P(=O)(O)O)c3)cc2CN(C(C)C)C(C)C)c(F)cn1 (stereo not shown) [Compound 22, (1-cyclopropyl-1-(3-((3-((diisopropylamino)methyl)-4-(5-fluoro-2-methoxypyridin-4-yl)benzyl)oxy)phenyl)-2-methylpropan-2-yl)phosphonic acid] | > 1000 nM |
| COc1cc(-c2ccc(COc3cc([C@@H](CP(C)(=O)O)C4CC4)ccn3)cc2[C@@H](OC)C(C)(C)C)c(F)cn1 [Compound 28, ((S)-2-cyclopropyl-2-(2-((4-(5-fluoro-2-methoxypyridin-4-yl)-3-((S)-1-methoxy-2,2-dimethylpropyl)benzyl)oxy)pyridin-4-yl)ethyl)(methyl)phosphinic acid] | ≤ 50 nM |
| COc1ccc(F)c(-c2ccc(COc3cccc(C(C)CP(C)(=O)O)c3)cc2[C@@H](OC)C(C)(C)C)c1 (single isomer, unassigned) [Compound 32] | ≤ 50 nM |
| CCC(C[PH](=O)O)c1cccc(OCc2ccc(-c3cc(OC)ncc3F)c(CN(C(C)C)C(C)C)c2)c1 (stereo not shown) [Compound 23, (2-(3-((3-((diisopropylamino)methyl)-4-(5-fluoro-2-methoxypyridin-4-yl)benzyl)oxy)phenyl)butyl)phosphinic acid] | > 1000 nM |
| COc1ccc(F)c(-c2ccc(COc3cccc(C(C)CP(C)(=O)O)c3)cc2[C@@H](OC)C(C)(C)C)c1 (single isomer, unassigned) [Compound 33] | ≤ 50 nM |
| COc1cc(-c2ccc(COc3cccc([C@H](C4CC4)[C@@](C)(F)C(=O)NS(C)(=O)=O)c3)cc2CN(C(C)C)C(C)C)c(F)cn1 [Compound 4, (2R,3S)-3-cyclopropyl-3-(3-((3-((diisopropylamino)methyl)-4-(5-fluoro-2-methoxypyridin-4-yl)benzyl)oxy)phenyl)-2-fluoro-2-methyl-N-(methylsulfonyl)propanamide] | ≤ 50 nM |
| CO[C@H](c1cc(COc2cc([C@@H](CP(C)(=O)O)C3CC3)ccn2)ccc1-c1cc(O)ccc1F)C(C)(C)C [Compound 31, ((S)-2-cyclopropyl-2-(2-((2′-fluoro-5′-hydroxy-2-((S)-1-methoxy-2,2-dimethylpropyl)-[1,1′-biphenyl]-4-yl)methoxy)pyridin-4-yl)ethyl)(methyl)phosphinic acid] | ≤ 50 nM |
| COc1ccc(F)c(-c2ccc(COc3cc(C(C)CP(C)(=O)O)ccn3)cc2[C@@H](OC)C(C)(C)C)c1 (single isomer, unassigned) [Compound 40, ((R)-2-(2-((2′-fluoro-5′-methoxy-2-((S)-1-methoxy-2,2-dimethylpropyl)-[1,1′-biphenyl]-4-yl)methoxy)pyridin-4-yl)propyl)(methyl)phosphinic acid or ((S)-2-(2-((2′-fluoro-5′-methoxy-2-((S)-1-methoxy-2,2-dimethylpropyl)-[1,1′-biphenyl]-4-yl)methoxy)pyridin-4-yl)propyl)(methyl)phosphinic acid] | ≤ 50 nM |
| COc1cc(-c2ccc(COc3cc(C(C)CP(C)(=O)O)ccn3)cc2[C@@H](OC)C(C)(C)C)c(F)cn1 (single isomer, unassigned) [Compound 38] | ≤ 50 nM |

Second part, the compound after the results:

| EC50 | Compound |
| --- | --- |
| > 1000 nM | COc1cc(-c2ccc(COc3cccc(C(C)CP(C)(=O)O)c3)cc2CN(C(C)C)C(C)C)c(F)cn1 (single isomer, unassigned) [Compound 36, (2-(3-((3-((diisopropylamino)methyl)-4-(5-fluoro-2-methoxypyridin-4-yl)benzyl)oxy)phenyl)propyl)(methyl)phosphinic acid] |
| > 1000 nM | CCP(=O)(O)CC(c1cccc(OCc2ccc(-c3cc(OC)ncc3F)c(CN(C(C)C)C(C)C)c2)c1)C1CC1 (single isomer, unassigned) [Compound 18, (2-cyclopropyl-2-(3-((3-((diisopropylamino)methyl)-4-(5-fluoro-2-methoxypyridin-4-yl)benzyl)oxy)phenyl)ethyl)(ethyl)phosphinic acid] |
| > 1000 nM | CCP(=O)(O)CC(c1cccc(OCc2ccc(-c3cc(OC)ncc3F)c(CN(C(C)C)C(C)C)c2)c1)C1CC1 (single isomer, unassigned) [Compound 20, (2-cyclopropyl-2-(3-((3-((diisopropylamino)methyl)-4-(5-fluoro-2-methoxypyridin-4-yl)benzyl)oxy)phenyl)ethyl)(ethyl)phosphinic acid] |
| > 1000 nM | CCP(=O)(O)CC(c1cccc(OCc2ccc(-c3cc(OC)ncc3F)c(CN(C(C)C)C(C)C)c2)c1)C1CC1 (single isomer, unassigned) [Compound 19, (2-cyclopropyl-2-(3-((3-((diisopropylamino)methyl)-4-(5-fluoro-2-methoxypyridin-4-yl)benzyl)oxy)phenyl)ethyl)(ethyl)phosphinic acid] |
| > 1000 nM | COc1cc(-c2ccc(OCc3cccc(C(CP(=O)(O)O)C4CC4)c3)cc2CN(C(C)C)C(C)C)c(F)cn1 (stereo not shown) [Compound 9, (2-cyclopropyl-2-(3-((3-((diisopropylamino)methyl)-4-(5-fluoro-2-methoxypyridin-4-yl)phenoxy)methyl)phenyl)ethyl)phosphonic acid] |
| > 1000 nM | COc1cc(-c2ccc(COc3cccc(C(CP(=O)(O)O)C4CC4)c3)cc2CN(C(C)C)C(C)C)c(F)cn1 (stereo not shown) [Compound 8, (2-cyclopropyl-2-(3-((3-((diisopropylamino)methyl)-4-(5-fluoro-2-methoxypyridin-4-yl)benzyl)oxy)phenyl)ethyl)phosphonic acid] |
| 50 to 250 nM | COc1cc(-c2ccc(COc3cccc(C(C)CP(C)(=O)O)c3)cc2CN(C(C)C)C(C)C)c(F)cn1 (single isomer, unassigned) [Compound 35, (2-(3-((3-((diisopropylamino)methyl)-4-(5-fluoro-2-methoxypyridin-4-yl)benzyl)oxy)phenyl)propyl)(methyl)phosphinic acid] |
| 50 to 250 nM | COc1cc(-c2ccc(COc3cccc(C(CP(C)(=O)O)C4CC4)c3)cc2CN(C(C)C)C(C)C)c(F)cn1 (single isomer, unassigned) [Compound 10, (2-cyclopropyl-2-(3-((3-((diisopropylamino)methyl)-4-(5-fluoro-2-methoxypyridin-4-yl)benzyl)oxy)phenyl)ethyl)(methyl)phosphinic acid] |
| > 1000 nM | COc1cc(-c2ccc(COc3cccc(C(CS(=O)(=O)O)C4CC4)c3)cc2CN(C(C)C)C(C)C)c(F)cn1 (stereo not shown) [Compound 1, 2-cyclopropyl-2-(3-((3-((diisopropylamino)methyl)-4-(5-fluoro-2-methoxypyridin-4-yl)benzyl)oxy)phenyl)ethanesulfonic acid] |
| 50 to 250 nM | COc1cc(-c2ccc(OCc3cccc(C(CP(C)(=O)O)C4CC4)c3)cc2CN(C(C)C)C(C)C)c(F)cn1 (stereo not shown) [Compound 21, (2-cyclopropyl-2-(3-((3-((diisopropylamino)methyl)-4-(5-fluoro-2-methoxypyridin-4-yl)phenoxy)methyl)phenyl)ethyl)(methyl)phosphinic acid] |
| > 1000 nM | COc1cc(-c2ccc(COc3cccc(C(CP(C)(=O)O)C4CC4)c3)c(CN(C(C)C)C(C)C)c2)c(F)cn1 (stereo not shown) [Compound 16, (2-cyclopropyl-2-(3-((2-((diisopropylamino)methyl)-4-(5-fluoro-2-methoxypyridin-4-yl)benzyl)oxy)phenyl)ethyl)(methyl)phosphinic acid] |
| > 1000 nM | COc1cc(-c2ccc(COc3cccc(C(CS(=O)(=O)O)C4CC4)c3)cc2CN(C(C)C)C(C)C)c(F)cn1 (single isomer, unassigned) [Compound 14, 2-cyclopropyl-2-(3-((3-((diisopropylamino)methyl)-4-(5-fluoro-2-methoxypyridin-4-yl)benzyl)oxy)phenyl)ethanesulfonic acid] |
